Peptide text beside a SMILES is read from it. * marks the point of attachment. NOTA = O=C(O)CN1CCN(CC(=O)O)CCN(CC(=O)*)CC1; AEEEA = NCCOCCOCCOCC(=O)O
Experiments:
[1] = In vitro stability in saline (radio-HPLC); assay type: physicochemical; conditions: room temperature, over 4 h (0.5, 1, 2, 4 h), 3.74 MBq
Method: (§1) The in vitro stability of [^68Ga]Ga-HN11-1 and [^68Ga]Ga-HN11-2 (3.74 MBq) in saline and serum was tested by radio-HPLC analysis of its radiochemical purity after incubation at room temperature for 0.5 , 1 , 2 and 4 h.

A549-PD-L2 cell lines = assay: Cell uptake assay; assay type: cell-based; conditions: A549-PD-L2 cells, n = 5; for cell uptake rate: mean ± SD
Method: Cell uptake assays were conducted to measure the uptake of [^68Ga]Ga-HN11-1 and [^68Ga]Ga-HN11-2 in A549 and A459-PD-L2 cell lines following incubation periods of 15, 30, 60, and 90 min. Blocking studies were performed by coincubating cells with an excess of precursor (HN11-1 / HN11-2), and then the cell uptakes of [^68Ga]Ga-HN11-1 and [^68Ga]Ga-HN11-2 were performed in A459-PD-L2 cell lines after 60 min of incubation. The experiment details are provided in the SI.
All tumor cells (1 × 10^6 per well) were seeded in two 24 - well plates, incubated for 24 h and then added with […] of [^68Ga]Ga-HN11-1 or [^68Ga]Ga-HN11-2 per well. After 15, 30, 60 and 90 min of uptake, the cells were separated from the medium, washed with 500 μL of cold PBS for three times and dissolved with 1 M NaOH. At different time points, these cells were collected and counted by using a γ-counter (WIZARD 2480, Pekin Elmer). For in vitro blocking experiments, cells were co-incubated with 10 μg of cold HN11-1 or HN11-2 precursor. After incubation, the cells were washed, collected and measured with a γ-counter, either. The IC50 values of [^68Ga]Ga-HN11-1 or [^68Ga]Ga-HN11-2 were determined using GraphPad Prism 8.0.2 software, respectively.

[2] = Pharmacokinetics in blood; assay type: in vivo; conditions: healthy BALB/C mouse, i.v. 5.55 MBq, noncompartmental model, Phoenix WinNonlin 8.1
Method: (§2) The static PET/CT imaging in A549 and A549-PD-L2 xenograft models after injection of 5.55 to 7.4 MBq (150 to 200 μCi) of [^68Ga]Ga-HN11-1 or [^68Ga]Ga-HN11-2 were acquired at 60 min. In the [^68Ga]Ga-HN11-1 + block or [^68Ga]Ga-HN11-2 + block groups, the xenograft models underwent pretreatment via intravenous injection of HN11-1 or HN-2 (10 mg/kg) before PET/CT imaging. Then, ROIs were delineated for each group. After imaging, tumor tissues from both the A549 and A459-PD-L2 xenograft tumors were extracted, and the PD-L2 expression was tested by IHC. For the pharmacokinetics study, healthy BALB/C mouse received an intravenous injection of 5.55 MBq (150 μCi) of [^68Ga]Ga-HN11-1 and [^68Ga]Ga-HN11-2. Measure the activity of blood samples (%ID/g, mean ± SD) at the corresponding time points, and the time-activity curve was plotted. Subsequently, pharmacokinetic parameters were tested using the noncompartmental model in Phoenix WinNonlin 8.1 software (Certara, USA).

[3] = In vitro stability in serum (radio-HPLC); assay type: in vitro ADME; conditions: room temperature, over 4 h (0.5, 1, 2, 4 h), 3.74 MBq, read-out: in vitro stability in serum (radiochemical purity)
Method: as §1

[4] = Partition coefficient (log P), 1-octanol/PBS; assay type: physicochemical; conditions: shake-flask 3 mL 1-octanol / 3 mL PBS pH 7.4, vortex 10 min, centrifugation 10,000 rpm 10 min, γ-counter, mean ± SD, n = 5
Method: The partition coefficients were assessed using the method described previously. [^68Ga]Ga-HN11-1 and [^68Ga]Ga-HN11-2 was respectively introduced into a mixture comprising 3 mL of 1-octanol and 3 mL of phosphate-buffered saline (PBS) with a pH of 7.4. Following vortexing for 10 minutes and subsequent centrifugation at 10,000 rpm for 10 minutes, samples were taken from both layers and counted using a γ-counter. The log P was determined using the formula: log P = log([M]oct/[M]aq). All measurements were conducted using 5 independent samples and are presented as mean ± standard deviation (SD).

[5] = test system: A549-PD-L2 xenograft models; assay: Static PET/CT imaging with blocking; assay type: in vivo, BALB/C nude mice; conditions: 60 min, pretreatment i.v. with excess HN11-1 / HN11-2 (10 mg/kg), n = 3
Method: as §2

[6] = test system: A549-PD-L2 tumor xenograft models; assay: Dynamic micro-PET imaging in A549-PD-L2 xenografts; assay type: in vivo, BALB/C nude mice; conditions: n = 3
Method: Micro-PET imaging was conducted using an Inveon PET scanner (Siemens, Germany). Dynamic PET examine were acquired over the first 60 min following the simultaneous injection of 7.4 to 9.25 MBq (200 to 250 μCi) of [^68Ga]Ga-HN11-1 and [^68Ga]Ga-HN11-2. After reconstructing the images and delineating the regions of interest (ROIs), time-radioactivity curves were plotted to obtain the Tumor/Muscle (T/M) ratios. %ID/g represents the percentage of the injected dose of the radiotracer that accumulates in a specific tissue per gram of tissue weight. For the biodistribution study, the xenograft models received an intravenous injection of 3.7 to 5.5 MBq (100 to 150 μCi) of [^68Ga]Ga-HN11-1. After the designated period (10, 30, 60, and 90 min), the mice were euthanized, and important tissues and organs were dissected and collected. The samples were counted using the γ-counter for determining the %ID/g, presented as mean ± standard deviation (SD).
A549 cell lines were provided by the China Center for Type Culture Collection (CCTCC) and cultured in RPMI-1640 medium supplemented with 10 % fetal bovine serum and 100 U/mL penicillin-streptomycin. The lentivirus system was implemented to introduce PD-L2 (PDCD1LG2) over-expressed cDNA into the A549 cells. The viral vectors were produced in 293T cells and co-transfected with the psAX2, pMD2G and PD-L2 plasmids. A549 cells transduced with the vectors were selectively grown in 1.6 μg/mL puromycin. Transfection efficiency was identified by WB and real-time quantitative PCR. All the cells were cultured in an incubator at 37° C with 5 % CO2 atmosphere. A549 and A549-PD-L2 cells (5 × 10^6, 200 μL)were subcutaneously implanted into the right shoulder of BALB/C nude mice (male, 4-6 weeks), respectively. When the tumors reached to 5 - 8 mm in diameter, the mice were subjected to in vivo and ex vivo studies. All the mice were purchased from the Laboratory Animal Center of Central South University.

## CC[C@H](C)[C@H](NC(=O)[C@H](CCCNC(=N)N)NC(=O)CNC(=O)[C@H](CCC(=O)O)NC(=O)[C@H](CC(N)=O)NC(=O)[C@H](Cc1ccc(O)cc1)NC(=O)[C@H](CCCNC(=N)N)NC(=O)[C@H](Cc1ccc(O)cc1)NC(=O)[C@H](Cc1c[nH]cn1)NC(=O)COCCOCCOCCNC(=O)CN1CCN(CC(=O)O)CCN(CC(=O)O)CC1)C(=O)N[C@@H](CCCNC(=N)N)C(=O)N[C@@H](CC(N)=O)C(=O)O [[^68Ga]Ga-HN11-1, metal not drawn] ({NOTA-AEEEA}-HYRYNEGRIRN-OH)
[1]
  in vitro stability in saline (radiochemical purity): > 95%
A549-PD-L2 cell lines; 30 min incubation, γ-counter
  cell uptake rate: 4.51 ± 0.04%
A549-PD-L2 cell lines; 60 min, with excess (10 μg) of cold HN11-1 / HN11-2 precursor
  cell uptake, block group: 1.43 ± 0.13%
A549-PD-L2 cell lines; 60 min incubation
  cell uptake rate: 4.87 ± 0.28%
[2]
  half-life in blood: 13.37 min
[3]
  remaining at 4 h: > 95%
[4]
  logD: -0.3 ± 0.0017
[5]
  tumor uptake after blocking: 0.74 ± 0.03 %ID/g
[6]; 10 min after injection
  tumor uptake: 2.61 ± 0.16 %ID/g
[6]; 20 min after injection
  tumor uptake: 2.97 ± 0.18 %ID/g
[6]; 30 min after injection
  tumor uptake: 3.36 ± 0.29 %ID/g
[6]; 40 min after injection
  tumor uptake: 3.22 ± 0.23 %ID/g
[6]; 50 min after injection
  tumor uptake: 3.06 ± 0.36 %ID/g
[6]; 60 min after injection
  tumor uptake: 2.76 ± 0.42 %ID/g
